Data published in US10807992B2, “Single enantiomer antiparasitic compounds” (priority 2017, dated 2020).

Assays:
[1] = test system: Rhipicephalus sanguineus; assay: In vitro contact activity against adult ticks (coated vial), R. sanguineus; conditions: for mortality at 0.006 µM: Trial 3, dose 0.006 μM; for mortality at 0.024 µM: Trial 3, dose 0.024 μM; for mortality at 0.098 µM: Trial 3, dose 0.098 μM; for mortality at 0.39 µM: Trial 3, dose 0.39 μM; for mortality at 1.56 µM: Trial 3, dose 1.56 μM; for mortality at 6.25 µM: Trial 3, dose 6.25 μM; for mortality at 25 µM: Trial 3, dose 25 μM; for mortality at 100 µM: Trial 3, dose 100 μM
Experimental: Rhipicephalus sanguineus, Dermacentor variabilis, Amblyomma americanum, (Ecto Services, Inc., Henderson, N.C.) and Ixodes scapularis (Oklahoma State University, Stillwater, Okla.) aged between 2-4 weeks post molt were held in an environmental chamber at 24° C., 80% humidity with 12-hour light/dark cycles.
For tick assays, vial caps were pre-drilled with a single hole in the center of each cap to allow air exchange. A filter paper (Whatman Grade 540 2.1 cm) was placed in the lid of each vial. An aliquot from each compound stock was added to an acetone/triton solution to achieve the desired top doses for the study. Serial dilutions were conducted from the top dose (i.e. 100 ppm) to achieve the desired titration range for EC50 and EC90 determination. For R. sanguineus, D. variabilis, and A. americanum, the final DMSO concentration in each test vial was 0.5%. For I. scapularis, compounds were solubilized directly in an acetone/triton solution due to I. scapularis' sensitivity to DMSO. A 459 μL aliquot of each compound formulation was transferred to a vial containing a Whatman Grade 540 2.1 cm filter paper. Vials were immediately placed on an unheated roller unit to allow for an even coating of the vial walls. After vials were coated, 41 μL of each compound formulation was added to the filter paper embedded in each vial cap. Each cap was allowed to dry. The vials were loosely capped and allowed to dry for a minimum of four hours in a chemical fume hood.
Compounds tested were: the C1 racemate, C1 (R) enantiomer, and the C1 (S) enantiomer. For Trial 3, the C1 (R) enantiomer and the C1 (S) enantiomer were further chiral purified to achieve >99% purity.
Ten adult ticks were added to each vial and held at 24° C., 80% humidity with 12-hour light/dark cycles. Adult ticks were assessed for percent mortality at various time points between 2 hours and 48 hours post infestation. Ticks were stimulated on a heated roller unit and evaluated. Ticks showing no movement, or very slow and uncoordinated movement were noted as dead.

[2] = test system: Ctenocephalides felis (flea), Ixodidae (tick), and Aedes aegypti (mosquito); assay: Bio-profiling of C1 racemate and enantiomers, overall conclusions of contact and ingestion assays; conditions: adult ticks, contact assays
From the text: 1-[6-[5-(3,5-dichloro-4-fluoro-phenyl)-5-(trifluoromethyl)-4H-isothiazol-3-yl]spiro[1H-isobenzofuran-3,3′-azetidine]-1′-yl]-3,3,3-trifluoro-propan-1-one (referred to herein as C1 racemate) is an isothiazoline compound consisting of two isomers: (R)-1-[6-[5-(3,5-dichloro-4-fluoro-phenyl)-5-(trifluoromethyl)-4H-isothiazol-3-yl]spiro[1H-isobenzofuran-3,3′-azetidine]-1′-yl]-3,3,3-trifluoro-propan-1-one (referred herein as C1 (R) enantiomer) and (S)-1-[6-[5-(3,5-dichloro-4-fluoro-phenyl)-5-(trifluoromethyl)-4H-isothiazol-3-yl]spiro[1H-isobenzofuran-3,3′-azetidine]-1′-yl]-3,3,3-trifluoro-propan-1-one (referred to herein as C1 (S) enantiomer). The racemic compound and the two enantiomers were tested against adult stages of Ctenocephalides felis (flea) Ixodidae (tick), and Aedes aegypti (mosquito). The compounds were solubilized in DMSO or an acetone/triton solution and dose response curves were generated for the individual compounds.
For evaluation of contact activity, coated-substrate (flea) and coated-vial (tick and mosquito) assay procedures were used. For evaluation of flea ingestion activity, an artificial feeding assay procedure was used. Insecticidal activity was evaluated at various time-points for each assay. Dose response curves were generated in duplicate on three independent test occasions (Trial 1-Trial 3) and EC50 and EC90 values were calculated.
Therefore, mortality correction was not performed in the assays. Calculation of EC50 and EC90 values was performed using XLfit. Both EC50 and EC90 values were calculated using the average of the two replicates for each Trial.
The C1 (R) enantiomer, C1 (S) enantiomer, and the C1 racemate were successfully evaluated against flea, tick, and mosquito contact and ingestion in vitro screening assays.

O=C(CC(F)(F)F)N1CC2(C1)OCc1cc(C3=NSC(c4cc(Cl)c(F)c(Cl)c4)(C(F)(F)F)C3)ccc12 (racemic) [C1 racemate, 1-[6-[5-(3,5-dichloro-4-fluoro-phenyl)-5-(trifluoromethyl)-4H-isothiazol-3-yl]spiro[1H-isobenzofuran-3,3′-azetidine]-1′-yl]-3,3,3-trifluoro-propan-1-one]
10%: mortality at 25 µM ([1]; 2 h, Rep2) | mortality at 100 µM ([1]; 2 h, Rep1) | mortality at 0.39 µM ([1]; 6 h, Rep1) | mortality at 0.39 µM ([1]; 12 h, Rep1)
20%: mortality at 6.25 µM ([1]; 6 h, Rep2)
0%: mortality at 0.006 µM ([1]; 2 h, Rep1) | mortality at 0.006 µM ([1]; 2 h, Rep2) | mortality at 0.024 µM ([1]; 2 h, Rep1) | mortality at 0.024 µM ([1]; 2 h, Rep2) | mortality at 0.098 µM ([1]; 2 h, Rep1) | mortality at 0.098 µM ([1]; 2 h, Rep2) | mortality at 0.39 µM ([1]; 2 h, Rep1) | mortality at 0.39 µM ([1]; 2 h, Rep2) | mortality at 1.56 µM ([1]; 2 h, Rep1) | mortality at 1.56 µM ([1]; 2 h, Rep2) | mortality at 6.25 µM ([1]; 2 h, Rep1) | mortality at 6.25 µM ([1]; 2 h, Rep2) | mortality at 100 µM ([1]; 2 h, Rep2) | mortality at 0.006 µM ([1]; 6 h, Rep1) | mortality at 0.006 µM ([1]; 6 h, Rep2) | mortality at 0.024 µM ([1]; 6 h, Rep1) | mortality at 0.024 µM ([1]; 6 h, Rep2) | mortality at 0.098 µM ([1]; 6 h, Rep1) | mortality at 0.098 µM ([1]; 6 h, Rep2) | mortality at 0.39 µM ([1]; 6 h, Rep2) | mortality at 1.56 µM ([1]; 6 h, Rep1) | mortality at 1.56 µM ([1]; 6 h, Rep2) | mortality at 0.006 µM ([1]; 12 h, Rep1) | mortality at 0.006 µM ([1]; 12 h, Rep2) | mortality at 0.024 µM ([1]; 12 h, Rep1) | mortality at 0.024 µM ([1]; 12 h, Rep2) | mortality at 0.098 µM ([1]; 12 h, Rep1) | mortality at 0.098 µM ([1]; 12 h, Rep2) | mortality at 0.39 µM ([1]; 12 h, Rep2)
50%: mortality at 6.25 µM ([1]; 6 h, Rep1) | mortality at 1.56 µM ([1]; 12 h, Rep2)
30%: mortality at 25 µM ([1]; 2 h, Rep1)
80%: mortality at 6.25 µM ([1]; 12 h, Rep1) | mortality at 6.25 µM ([1]; 12 h, Rep2)
100%: mortality at 25 µM ([1]; 6 h, Rep2) | mortality at 100 µM ([1]; 6 h, Rep1) | mortality at 100 µM ([1]; 6 h, Rep2) | mortality at 25 µM ([1]; 12 h, Rep2) | mortality at 100 µM ([1]; 12 h, Rep1) | mortality at 100 µM ([1]; 12 h, Rep2)
excellent potency against ticks: potency against ticks [2]
90%: mortality at 25 µM ([1]; 6 h, Rep1) | mortality at 1.56 µM ([1]; 12 h, Rep1) | mortality at 25 µM ([1]; 12 h, Rep1)

O=C(CC(F)(F)F)N1CC2(C1)OCc1cc(C3=NS[C@](c4cc(Cl)c(F)c(Cl)c4)(C(F)(F)F)C3)ccc12 [C1 (R) enantiomer, (R)-1-[6-[5-(3,5-dichloro-4-fluoro-phenyl)-5-(trifluoromethyl)-4H-isothiazol-3-yl]spiro[1H-isobenzofuran-3,3′-azetidine]-1′-yl]-3,3,3-trifluoro-propan-1-one]
0%: mortality at 0.006 µM ([1]; 2 h, Rep1) | mortality at 0.006 µM ([1]; 2 h, Rep2) | mortality at 0.024 µM ([1]; 2 h, Rep1) | mortality at 0.024 µM ([1]; 2 h, Rep2) | mortality at 0.098 µM ([1]; 2 h, Rep1) | mortality at 0.098 µM ([1]; 2 h, Rep2) | mortality at 0.39 µM ([1]; 2 h, Rep1) | mortality at 0.39 µM ([1]; 2 h, Rep2) | mortality at 1.56 µM ([1]; 2 h, Rep1) | mortality at 1.56 µM ([1]; 2 h, Rep2) | mortality at 6.25 µM ([1]; 2 h, Rep1) | mortality at 6.25 µM ([1]; 2 h, Rep2) | mortality at 25 µM ([1]; 2 h, Rep1) | mortality at 25 µM ([1]; 2 h, Rep2) | mortality at 100 µM ([1]; 2 h, Rep1) | mortality at 100 µM ([1]; 2 h, Rep2) | mortality at 0.006 µM ([1]; 6 h, Rep1) | mortality at 0.006 µM ([1]; 6 h, Rep2) | mortality at 0.024 µM ([1]; 6 h, Rep1) | mortality at 0.024 µM ([1]; 6 h, Rep2) | mortality at 0.098 µM ([1]; 6 h, Rep1) | mortality at 0.098 µM ([1]; 6 h, Rep2) | mortality at 0.39 µM ([1]; 6 h, Rep1) | mortality at 0.39 µM ([1]; 6 h, Rep2) | mortality at 1.56 µM ([1]; 6 h, Rep1) | mortality at 1.56 µM ([1]; 6 h, Rep2) | mortality at 6.25 µM ([1]; 6 h, Rep1) | mortality at 6.25 µM ([1]; 6 h, Rep2) | mortality at 25 µM ([1]; 6 h, Rep1) | mortality at 25 µM ([1]; 6 h, Rep2) | mortality at 100 µM ([1]; 6 h, Rep1) | mortality at 100 µM ([1]; 6 h, Rep2) | mortality at 0.006 µM ([1]; 12 h, Rep1) | mortality at 0.006 µM ([1]; 12 h, Rep2) | mortality at 0.024 µM ([1]; 12 h, Rep1) | mortality at 0.024 µM ([1]; 12 h, Rep2) | mortality at 0.098 µM ([1]; 12 h, Rep1) | mortality at 0.098 µM ([1]; 12 h, Rep2) | mortality at 0.39 µM ([1]; 12 h, Rep1) | mortality at 0.39 µM ([1]; 12 h, Rep2) | mortality at 1.56 µM ([1]; 12 h, Rep1) | mortality at 1.56 µM ([1]; 12 h, Rep2) | mortality at 6.25 µM ([1]; 12 h, Rep1) | mortality at 6.25 µM ([1]; 12 h, Rep2) | mortality at 25 µM ([1]; 12 h, Rep1) | mortality at 25 µM ([1]; 12 h, Rep2) | mortality at 100 µM ([1]; 12 h, Rep1) | mortality at 100 µM ([1]; 12 h, Rep2)
